Blank lines part the entries; values can stand above or below the compound they belong to.
Test system: 624824-186-R-J2-PDC multicell spheroids, viability
Test: Anticancer human tumor 624824-186-R-J2-PDC patient-derived colon adenocarcinoma cell line growth inhibition [PI3K]
Conditions: for IC50: curve of first compound; for viability, T/C: stronger effect = lower value
How it was run: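 Viability of mixed-cell spheroids was determined after exposure to pairwise combinations, one partner being inavolisib, alpelisib, duvelisib or copanlisib. Highest tested concentration matched clinical Cmax where known and 10 microM where not, descending in half-log steps.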

[1] = second compound 0.00316 µM, first compound 0.0316 µM
[2] = second compound 0.00316 µM, first compound 0.1 µM
[3] = second compound 0.00316 µM, first compound 0.316 µM
[4] = second compound 0.00316 µM, first compound 1 µM
[5] = second compound 0.00316 µM, first compound 3.16 µM
[6] = second compound 0.00316 µM, first compound 10 µM
[7] = second compound 0.01 µM, first compound 0.0316 µM
[8] = second compound 0.01 µM, first compound 0.1 µM
[9] = second compound 0.01 µM, first compound 0.316 µM
[10] = second compound 0.01 µM, first compound 1 µM
[11] = second compound 0.01 µM, first compound 3.16 µM
[12] = second compound 0.01 µM, first compound 10 µM
[13] = second compound 0.0316 µM, first compound 0.0316 µM
[14] = second compound 0.0316 µM, first compound 0.1 µM
[15] = second compound 0.0316 µM, first compound 0.316 µM
[16] = second compound 0.0316 µM, first compound 1 µM
[17] = second compound 0.0316 µM, first compound 3.16 µM
[18] = second compound 0.0316 µM, first compound 10 µM
[19] = second compound 0.1 µM, first compound 0.0316 µM
[20] = second compound 0.1 µM, first compound 0.1 µM
[21] = second compound 0.1 µM, first compound 0.316 µM
[22] = second compound 0.1 µM, first compound 1 µM
[23] = second compound 0.1 µM, first compound 3.16 µM
[24] = second compound 0.1 µM, first compound 10 µM
[25] = second compound 0.316 µM, first compound 0.0316 µM
[26] = second compound 0.316 µM, first compound 0.1 µM
[27] = second compound 0.316 µM, first compound 0.316 µM
[28] = second compound 0.316 µM, first compound 1 µM
[29] = second compound 0.316 µM, first compound 3.16 µM
[30] = second compound 0.316 µM, first compound 10 µM
[31] = second compound 1 µM, first compound 0.0316 µM
[32] = second compound 1 µM, first compound 0.1 µM
[33] = second compound 1 µM, first compound 0.316 µM
[34] = second compound 1 µM, first compound 1 µM
[35] = second compound 1 µM, first compound 3.16 µM
[36] = second compound 1 µM, first compound 10 µM
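Also: spheroids exposed to agents for 7 days before viability read.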
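For viability, T/C in this document: 100% = DMSO vehicle treated spheroids.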

IC50 (second compound 0.00316 µM): > 10 µM | IC50 (second compound 0.01 µM): > 10 µM | IC50 (second compound 0.0316 µM): > 10 µM | IC50 (second compound 0.1 µM): > 10 µM | IC50 (second compound 0.316 µM): > 10 µM | IC50 (second compound 1 µM): > 10 µM
SMILES: C=CC(=O)N1CCN(c2nc(=O)n(-c3c(C)ccnc3C(C)C)c3nc(-c4c(O)cccc4F)c(F)cc23)C(C)C1 (stereo not given) + COc1c(OCCCN2CCOCC2)ccc2c3n(c(=NC(=O)c4cnc(N)nc4)nc12)CCN3
viability, T/C [1]: 96.5% | viability, T/C [2]: 109% | viability, T/C [3]: 95.6% | viability, T/C [4]: 77.9% | viability, T/C [5]: 88.7% | viability, T/C [6]: 80.8% | viability, T/C [7]: 102% | viability, T/C [8]: 98.4% | viability, T/C [9]: 101% | viability, T/C [10]: 75.3% | viability, T/C [11]: 93% | viability, T/C [12]: 88.4% | viability, T/C [13]: 88.4% | viability, T/C [14]: 86.5% | viability, T/C [15]: 97.3% | viability, T/C [16]: 75.1% | viability, T/C [17]: 89.5% | viability, T/C [18]: 81.7% | viability, T/C [19]: 80.4% | viability, T/C [20]: 61.1% | viability, T/C [21]: 80.1% | viability, T/C [22]: 67.9% | viability, T/C [23]: 69% | viability, T/C [24]: 69% | viability, T/C [25]: 62.6% | viability, T/C [26]: 59.3% | viability, T/C [27]: 59.5% | viability, T/C [28]: 61.6% | viability, T/C [29]: 69.8% | viability, T/C [30]: 61% | viability, T/C [31]: 59.1% | viability, T/C [32]: 53% | viability, T/C [33]: 65.5% | viability, T/C [34]: 58.1% | viability, T/C [35]: 64.5% | viability, T/C [36]: 60.5%

IC50 (second compound 0.00316 µM): > 10 µM | IC50 (second compound 0.01 µM): > 10 µM | IC50 (second compound 0.0316 µM): > 10 µM | IC50 (second compound 0.1 µM): > 10 µM | IC50 (second compound 0.316 µM): > 10 µM | IC50 (second compound 1 µM): > 10 µM
SMILES: CC(C)NCC(C(=O)N1CCN(c2ncnc3c2C(C)CC3O)CC1)c1ccc(Cl)cc1 (stereo not given) + COc1c(OCCCN2CCOCC2)ccc2c3n(c(=NC(=O)c4cnc(N)nc4)nc12)CCN3
viability, T/C [1]: 117% | viability, T/C [2]: 85% | viability, T/C [3]: 81.3% | viability, T/C [4]: 89.2% | viability, T/C [5]: 78.7% | viability, T/C [6]: 75.2% | viability, T/C [7]: 97.2% | viability, T/C [8]: 96.4% | viability, T/C [9]: 85.7% | viability, T/C [10]: 77.4% | viability, T/C [11]: 87.4% | viability, T/C [12]: 79.8% | viability, T/C [13]: 91.6% | viability, T/C [14]: 84.5% | viability, T/C [15]: 73.6% | viability, T/C [16]: 89.7% | viability, T/C [17]: 70.5% | viability, T/C [18]: 78.3% | viability, T/C [19]: 76% | viability, T/C [20]: 75.5% | viability, T/C [21]: 68.7% | viability, T/C [22]: 63.2% | viability, T/C [23]: 77.4% | viability, T/C [24]: 64.7% | viability, T/C [25]: 60.1% | viability, T/C [26]: 66% | viability, T/C [27]: 62.1% | viability, T/C [28]: 67.3% | viability, T/C [29]: 62.3% | viability, T/C [30]: 66.3% | viability, T/C [31]: 58.6% | viability, T/C [32]: 54.3% | viability, T/C [33]: 62.4% | viability, T/C [34]: 61.7% | viability, T/C [35]: 65% | viability, T/C [36]: 56.5%

Continued, compound first:

SMILES: CCN1CCN(Cc2ccc(Nc3ncc(F)c(-c4cc(F)c5nc(C)n(C(C)C)c5c4)n3)nc2)CC1 + COc1c(OCCCN2CCOCC2)ccc2c3n(c(=NC(=O)c4cnc(N)nc4)nc12)CCN3
IC50 (second compound 0.00316 µM): > 1 µM | IC50 (second compound 0.01 µM): > 1 µM | IC50 (second compound 0.0316 µM): > 1 µM | IC50 (second compound 0.1 µM): > 1 µM | IC50 (second compound 0.316 µM): > 1 µM | IC50 (second compound 1 µM): > 1 µM | viability, T/C (second compound 0.00316 µM, first compound 0.00316 µM): 94.1% | viability, T/C (second compound 0.00316 µM, first compound 0.01 µM): 90.4% | viability, T/C [1]: 107% | viability, T/C [2]: 76.5% | viability, T/C [3]: 89.4% | viability, T/C [4]: 106% | viability, T/C (second compound 0.01 µM, first compound 0.00316 µM): 120% | viability, T/C (second compound 0.01 µM, first compound 0.01 µM): 73.7% | viability, T/C [7]: 78.7% | viability, T/C [8]: 75.9% | viability, T/C [9]: 81.7% | viability, T/C [10]: 94.6% | viability, T/C (second compound 0.0316 µM, first compound 0.00316 µM): 91.8% | viability, T/C (second compound 0.0316 µM, first compound 0.01 µM): 99.1% | viability, T/C [13]: 75.3% | viability, T/C [14]: 66.9% | viability, T/C [15]: 80.5% | viability, T/C [16]: 89.9% | viability, T/C (second compound 0.1 µM, first compound 0.00316 µM): 81.1% | viability, T/C (second compound 0.1 µM, first compound 0.01 µM): 63.4% | viability, T/C [19]: 64.6% | viability, T/C [20]: 54.2% | viability, T/C [21]: 68.2% | viability, T/C [22]: 83.8% | viability, T/C (second compound 0.316 µM, first compound 0.00316 µM): 69.1% | viability, T/C (second compound 0.316 µM, first compound 0.01 µM): 57.6% | viability, T/C [25]: 58.9% | viability, T/C [26]: 58.9% | viability, T/C [27]: 69.4% | viability, T/C [28]: 91.8% | viability, T/C (second compound 1 µM, first compound 0.00316 µM): 64.2% | viability, T/C (second compound 1 µM, first compound 0.01 µM): 56.9% | viability, T/C [31]: 61.4% | viability, T/C [32]: 62.9% | viability, T/C [33]: 72.9% | viability, T/C [34]: 88%

SMILES: Cn1ncc(Cl)c1-c1cc(C(=O)NC(CN)Cc2cccc(F)c2)sc1Cl (stereo not given) + COc1c(OCCCN2CCOCC2)ccc2c3n(c(=NC(=O)c4cnc(N)nc4)nc12)CCN3
IC50 (second compound 0.00316 µM): > 10 µM | IC50 (second compound 0.01 µM): 8.26 µM | IC50 (second compound 0.0316 µM): 8.19 µM | IC50 (second compound 0.1 µM): 7.47 µM | IC50 (second compound 0.316 µM): 5.31 µM | IC50 (second compound 1 µM): 4.55 µM | viability, T/C [1]: 86.6% | viability, T/C [2]: 72% | viability, T/C [3]: 90.8% | viability, T/C [4]: 87.7% | viability, T/C [5]: 72.7% | viability, T/C [6]: 50% | viability, T/C [7]: 118% | viability, T/C [8]: 81.2% | viability, T/C [9]: 93.7% | viability, T/C [10]: 81.6% | viability, T/C [11]: 62.6% | viability, T/C [12]: 45.5% | viability, T/C [13]: 86.1% | viability, T/C [14]: 85.5% | viability, T/C [15]: 89.2% | viability, T/C [16]: 74% | viability, T/C [17]: 71% | viability, T/C [18]: 45.4% | viability, T/C [19]: 78.2% | viability, T/C [20]: 81.3% | viability, T/C [21]: 68.3% | viability, T/C [22]: 69.2% | viability, T/C [23]: 64.7% | viability, T/C [24]: 44.9% | viability, T/C [25]: 80.9% | viability, T/C [26]: 66.6% | viability, T/C [27]: 64.7% | viability, T/C [28]: 66.9% | viability, T/C [29]: 63.4% | viability, T/C [30]: 36.3% | viability, T/C [31]: 68.5% | viability, T/C [32]: 58.3% | viability, T/C [33]: 61.6% | viability, T/C [34]: 57.9% | viability, T/C [35]: 57.8% | viability, T/C [36]: 35.8%

SMILES: Cn1nccc1Nc1nccc(-c2ccn(C(CO)c3ccc(Cl)c(F)c3)c(=O)c2)n1 (stereo not given) + COc1c(OCCCN2CCOCC2)ccc2c3n(c(=NC(=O)c4cnc(N)nc4)nc12)CCN3
IC50 (second compound 0.00316 µM): > 10 µM | IC50 (second compound 0.01 µM): > 10 µM | IC50 (second compound 0.0316 µM): 0.37 µM | IC50 (second compound 0.1 µM): 0.138 µM | IC50 (second compound 0.316 µM): 0.0535 µM | IC50 (second compound 1 µM): 0.0374 µM | viability, T/C [1]: 102% | viability, T/C [2]: 86.5% | viability, T/C [3]: 78.2% | viability, T/C [4]: 75.5% | viability, T/C [5]: 82.7% | viability, T/C [6]: 81.2% | viability, T/C [7]: 102% | viability, T/C [8]: 71.9% | viability, T/C [9]: 74.2% | viability, T/C [10]: 67% | viability, T/C [11]: 66.7% | viability, T/C [12]: 50.5% | viability, T/C [13]: 85.7% | viability, T/C [14]: 59% | viability, T/C [15]: 58.9% | viability, T/C [16]: 37.1% | viability, T/C [17]: 33.6% | viability, T/C [18]: 26.5% | viability, T/C [19]: 69.5% | viability, T/C [20]: 53.3% | viability, T/C [21]: 39.1% | viability, T/C [22]: 30.9% | viability, T/C [23]: 26.6% | viability, T/C [24]: 15.6% | viability, T/C [25]: 55.3% | viability, T/C [26]: 42.7% | viability, T/C [27]: 36.3% | viability, T/C [28]: 22.8% | viability, T/C [29]: 15.1% | viability, T/C [30]: 11.8% | viability, T/C [31]: 51.5% | viability, T/C [32]: 42.9% | viability, T/C [33]: 36.8% | viability, T/C [34]: 26.5% | viability, T/C [35]: 14.9% | viability, T/C [36]: 7.14%

From PubChem BioAssay AID1963975 (Molecular Pharmacology Branch, DTP, NCI, 2024)
